The record followed here is BindingDB's records for doi:10.1016/j.bmcl.2018.01.029 (Presidio Pharmaceuticals, 2018).

A short description of test [1]: Inhibition of HCV genotype 1a NS5A polymerase infected in human HuH7 replicon cells by luciferase reporter gene assay. (A replicon is a self-replicating genome or part of one, used to study replication in cells.)
The nature of test [2]: Inhibition of HCV genotype 1b NS5B polymerase infected in human HuH7 replicon cells by luciferase reporter gene assay.
A short description of test [3]: Inhibition of HCV genotype 1a NS5A polymerase L31V/Y93H double mutant infected in human HuH7 replicon cells by luciferase reporter gene assay.
The nature of test [4]: Inhibition of HCV genotype 4a NS5B polymerase infected in human HuH7 replicon cells by luciferase reporter gene assay.
A short description of test [5]: Inhibition of HCV genotype 3a NS5B polymerase infected in human HuH7 replicon cells by luciferase reporter gene assay.
Test [6] is described as follows: Inhibition of HCV genotype 2a NS5B polymerase infected in human HuH7 replicon cells by luciferase reporter gene assay.
Test [7] in a line: Inhibition of NS5B polymerase in HCV genotype 1b infected human HuH7 replicon cells assessed as reduction in viral RNA level after 3 days by RT-PCR assay.

Consider `CNC(=O)c1c(-c2ccc(F)cc2)oc2cc3c(cc12)C(C)OCCN3S(C)(=O)=O` (stereo not given), for which the half-maximal effective concentration (EC50) – broadly, the midpoint of the concentration-response curve – in test [1] was 28 nM; in test [2], 11 nM; in test [3], 21 nM.

As to `CNC(=O)c1c(-c2ccc(F)cc2)oc2cc3c(cc12)CCCCN3C(C)=O`, the EC50 in test [1] and in test [3] was more than 2000 nM each time.

Take `CNC(=O)c1c(-c2ccc(F)cc2)oc2cc3c(cc12)[C@H](C)O[C@H](CO)CN3S(C)(=O)=O`: the EC50 in test [1] came to 9 nM; in test [2], 3 nM; in test [4] it was 9 nM; in test [5], 6 nM; in test [6], 12 nM.

Consider `CNC(=O)c1c(-c2ccc(F)cc2)oc2cc3c(cc12)CCCCN3S(=O)(=O)C1CC1`, for which the concentration for a half-maximal effect (EC50) in test [1] was determined as 335 nM; in test [2], 73 nM; in test [3], 423 nM.

For `CNC(=O)c1c(-c2ccc(F)cc2)oc2cc3c(cc12)C(C)OCC(CS(C)(=O)=O)N3S(C)(=O)=O` (stereo not given), the EC50 in test [1] was 16 nM; in test [2], 19 nM; in test [4], 51 nM; in test [5], 70 nM; in test [6] it was 134 nM.

For the molecule `CNC(=O)c1c(-c2ccc(F)cc2)oc2cc3c(cc12)[C@@H](C)O[C@H](CO)CN3S(C)(=O)=O`, the values for the 50% effective concentration (EC50) in test [1] and in test [2] were 554 nM and 69 nM, respectively.

With `CNC(=O)c1c(-c2ccc(F)cc2)oc2cc3c(cc12)[C@H](C)CCCN3S(C)(=O)=O`, the concentration giving a half-maximal response (EC50) in test [1] was found to be 10 nM; in test [2] it was 4 nM; in test [3] it was 9 nM.

In the case of `CNC(=O)c1c(-c2ccc(F)cc2)oc2cc3c(cc12)C(C)OCC(CO)N3S(C)(=O)=O` (stereo not given), the EC50 in test [1] came out at 40 nM; in test [2], 33 nM; in test [4] it was 117 nM; in test [5], 53 nM; in test [6] it was 141 nM.

Take `CNC(=O)c1c(-c2ccc(F)cc2)oc2cc3c(cc12)[C@@H](C)O[C@H](CS(C)(=O)=O)CN3S(C)(=O)=O`: the results for the EC50 in test [1] and in test [2] were 100 nM and 24 nM, respectively.

In the case of `CNC(=O)c1c(-c2ccc(F)cc2)oc2cc3c(cc12)[C@H](C)O[C@H](CS(C)(=O)=O)CN3S(C)(=O)=O`, the concentration for a half-maximal effect (EC50) in test [1] came out at 4 nM; in test [2] it was 3 nM; in test [4], 7 nM; in test [5], 10 nM; in test [6], 18 nM.

With `CNC(=O)c1c(-c2ccc(F)cc2)oc2cc3c(cc12)C(C)OC(CS(C)(=O)=O)CN3S(C)(=O)=O` (stereo not given), the EC50 is 9 nM in test [1]; 7 nM in test [2]; 17 nM in test [4]; 17 nM in test [5]; 64 nM in test [6].

As for `CNC(=O)c1c(-c2ccc(F)cc2)oc2cc3c(cc12)C(C)OC(CO)CN3S(C)(=O)=O` (stereo not given), the EC50 in test [1] was 52 nM; in test [2] it was 12 nM; in test [4], 32 nM; in test [5] it was 20 nM; in test [6], 62 nM.

Turning to `CNC(=O)c1c(-c2ccc(F)cc2)oc2cc3c(cc12)[C@H](C)OC1(CC1)CN3S(C)(=O)=O`, the half-maximal effective concentration (EC50) in test [1] is 93 nM; in test [2] it was 13 nM.

`CNC(=O)c1c(-c2ccc(F)cc2)oc2cc3c(cc12)C(C)OC1(CC1)CN3S(C)(=O)=O` (stereo not given): the half-maximal effective concentration (EC50) was determined as 130 nM in test [1] and 19 nM in test [2].

Regarding `CNC(=O)c1c(-c2ccc(F)cc2)oc2cc3c(cc12)C(C)n1ccnc1CN3S(C)(=O)=O` (stereo not given), the EC50 was found to be 26 nM in test [1] and 74 nM in test [2].

In the case of `CNC(=O)c1c(-c2ccc(F)cc2)oc2cc3c(cc12)[C@@H](C)NC(=O)CN3S(C)(=O)=O`, the EC50 in test [1] was 1800 nM; in test [2], 586 nM.

For `CNC(=O)c1c(-c2ccc(F)cc2)oc2cc3c(cc12)C(C)NC(=O)CN3S(C)(=O)=O` (stereo not given), the figures for the EC50 in test [1], in test [2] and in test [3] were 19 nM, 15 nM and 14 nM, respectively.

Turning to `CNC(=O)c1c(-c2ccc(F)cc2)oc2cc3c(cc12)C1CC1CCN3S(C)(=O)=O` (stereo not given), the EC50 was found to be 35 nM in test [1], 9 nM in test [2] and 44 nM in test [3].

Regarding `CS(=O)(=O)N1CCCCc2cc3c(-c4ncc[nH]4)c(-c4ccc(F)cc4)oc3cc21`, the EC50 in test [1] worked out at 33 nM; in test [2] it was 5 nM; in test [3], 59 nM.

With `CNC(=O)c1c(-c2ccc(F)cc2)oc2cc3c(cc12)C(C)OC(C)CN3S(C)(=O)=O` (stereo not given), the values for the 50% effective concentration (EC50) in test [1] and in test [2] were 33 nM and 8 nM, respectively.

As for `CNC(=O)c1c(-c2ccc(F)cc2)oc2cc(N(CCO)S(C)(=O)=O)c(C3CC3)cc12` [HCV 796], the concentration giving a half-maximal response (EC50) in test [1] was determined as 24 nM; in test [2] it was 12 nM; in test [4], 21 nM; in test [5] it was 19 nM; in test [6], 72 nM; in test [7] it was 9 nM.
